One data set concerns the target SLY (Suilysin) (Streptococcus suis, UniProt Q55996). The data set is described as follows: biochemical.
Data set [1] concerns the molecule itself. In words: SDS-PAGE without beta-mercaptoethanol + Western blot of oligomers; purified SLO incubated with or without luteolin at different concentrations, 37°C for 30 min; then 40°C for 10 min in 1x SDS-PAGE loading buffer without β-ME; blot with rabbit polyclonal anti-Streptolysin O; oligomer/monomer ratio by densitometry. In general terms: Immunoblotting shows a protein as a band on a membrane.

Sequence of SLY (Suilysin) (Q55996 28-497 limits assumed): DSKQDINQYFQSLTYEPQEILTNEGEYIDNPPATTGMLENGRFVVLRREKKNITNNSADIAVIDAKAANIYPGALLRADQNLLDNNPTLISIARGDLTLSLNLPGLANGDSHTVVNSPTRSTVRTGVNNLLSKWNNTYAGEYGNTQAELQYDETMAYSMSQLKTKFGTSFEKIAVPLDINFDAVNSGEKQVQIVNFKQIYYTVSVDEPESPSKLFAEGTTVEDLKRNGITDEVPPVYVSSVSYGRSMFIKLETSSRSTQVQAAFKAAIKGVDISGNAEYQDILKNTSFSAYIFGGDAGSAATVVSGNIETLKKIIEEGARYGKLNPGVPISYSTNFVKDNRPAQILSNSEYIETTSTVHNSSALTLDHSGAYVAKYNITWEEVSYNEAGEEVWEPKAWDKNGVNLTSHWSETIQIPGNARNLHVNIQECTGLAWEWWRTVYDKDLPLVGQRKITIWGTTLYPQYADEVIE

Take `O=c1cc(-c2ccc(O)c(O)c2)oc2cc(O)cc(O)c12` [Luteolin]: the affinity at SLY (Suilysin), expressed as Kd, was 554 nM. This counts as sub-micromolar.

B1: Streptolysin O (natural protein, UniProt P0C0I3 78-571, looked up)
chain: LAPKEMPLESAEKEEKKSEDKKKSEEDHTEEINDKIYSLNYNELEVLAKNGETIENFVPKEGVKKADKFIVIERKKKNINTTPVDISIIDSVTDRTYPAALQLANKGFTENKPDAVVTKRNPQKIHIDLPGMGDKATVEVNDPTYANVSTAIDNLVNQWHDNYSGGNTLPARTQYTESMVYSKSQIEAALNVNSKILDGTLGIDFKSISKGEKKVMIAAYKQIFYTVSANLPNNPADVFDKSVTFKELQRKGVSNEAPPLFVSNVAYGRTVFVKLETSSKSNDVEAAFSAALKGTDVKTNGKYSDILENSSFTAVVLGGDAAEHNKVVTKDFDVIRNVIKDNATFSRKNPAYPISYTSVFLKNNKIAGVNNRTEYVETTSTEYTSGKINLSHQGAYVAQYEILWDEINYDDKGKEVITKRRWDNNWYSKTSPFSTVIPLGANSRNIRIMARECTGLAWEWWRKVIDERDVKLSKEINVNISGSTLSPYGSITYK
notes: Streptolysin O of Group A Streptococcus (Streptococcus pyogenes), amplified from DNA of GAS strain M1; After the BamHI site the forward primer encodes LAPKEMP; The reverse primer runs to the natural stop codon (...YGSITYK-stop); Surmise: cloning into the BamHI/SacI sites of pET28a with the gene's own stop codon would give an N-terminal His6-thrombin site-T7 tag leader; also called SLO; SLO protein
As to B1, the binding result in data set [1] is recorded as “binds”.

These data come from PMC9300923 (Frontiers in Pharmacology, 2022).
